Measurements as given in PubChem BioAssay AID1259407 (Chemical Carcinogenesis Research Information System (CCRIS), 2018).
Activity calls are given as the source filed them. How the calls were made is not given here.

Test system: CCRIS mutagenicity, Ames/micronucleus/aberration tests
Experiment: CCRIS mutagenicity studies

In the case of `O=NO`, the mutagenic call (End Point: IN VIVO MICRONUCLEUS, Test System: BONE MARROW POLYCHROMATIC ERYTHROCYTES, Species: MOUSE, Strain/Sex: DDY/MALE, Route: IP) is reported as “inactive; negative”, the mutagenic call (End Point: IN VIVO MICRONUCLEUS, Test System: BONE MARROW POLYCHROMATIC ERYTHROCYTES, Species: MOUSE, Strain/Sex: DDY/MALE, Route: ORAL) is reported as “inactive; negative” and the mutagenic call (End Point: In vitro chromosomal aberrations, Test System: Chinese hamster lung CHL/IU cells, Metabolic Activation: None) is reported as “inactive; negative”. For the same compound, the mutagenic call (Test System: AMES SALMONELLA TYPHIMURIUM, Strain/Indicator: DJ400, Metabolic Activation: NONE, Method: PREINCUBATION) was “inactive; negative”, the mutagenic call (Test System: AMES SALMONELLA TYPHIMURIUM, Strain/Indicator: DJ400, Metabolic Activation: NONE, Method: STANDARD PLATE) was “inactive; negative” and the mutagenic call (Test System: AMES SALMONELLA TYPHIMURIUM, Strain/Indicator: DJ400, Metabolic Activation: RAT, LIVER, S-9, AROCLOR 1254, Method: PREINCUBATION) was “inactive; negative”. For the same compound, the mutagenic call (Test System: AMES SALMONELLA TYPHIMURIUM, Strain/Indicator: DJ400, Metabolic Activation: RAT, LIVER, S-9, AROCLOR 1254, Method: STANDARD PLATE) was “inactive; negative”, the mutagenic call (Test System: AMES SALMONELLA TYPHIMURIUM, Strain/Indicator: DJ460, Metabolic Activation: NONE, Method: PREINCUBATION) was “inactive; negative” and the mutagenic call (Test System: AMES SALMONELLA TYPHIMURIUM, Strain/Indicator: DJ460, Metabolic Activation: NONE, Method: STANDARD PLATE) was “inactive; negative”. The mutagenic call (Test System: AMES SALMONELLA TYPHIMURIUM, Strain/Indicator: DJ460, Metabolic Activation: RAT, LIVER, S-9, AROCLOR 1254, Method: PREINCUBATION) was “inactive; negative”, the mutagenic call (Test System: AMES SALMONELLA TYPHIMURIUM, Strain/Indicator: DJ460, Metabolic Activation: RAT, LIVER, S-9, AROCLOR 1254, Method: STANDARD PLATE) was “inactive; negative” and the mutagenic call (Test System: AMES SALMONELLA TYPHIMURIUM, Strain/Indicator: TA97, Metabolic Activation: NONE, Method: STANDARD PLATE) was “inactive; negative”. The mutagenic call (Test System: AMES SALMONELLA TYPHIMURIUM, Strain/Indicator: TA97, Metabolic Activation: RAT, LIVER, S-9, AROCLOR 1254, Method: STANDARD PLATE) was “inactive; negative”, the mutagenic call (Test System: AMES SALMONELLA TYPHIMURIUM, Strain/Indicator: TA98, Metabolic Activation: HAMSTER LIVER S-9, AROCLOR 1254 (30%), Method: PREINCUBATION) was “inactive; negative” and the mutagenic call (Test System: AMES SALMONELLA TYPHIMURIUM, Strain/Indicator: TA98, Metabolic Activation: HAMSTER, LIVER, S-9, AROCLOR 1254 (30%), Method: PREINCUBATION) was “inactive; negative”. For the same compound, the mutagenic call (Test System: AMES SALMONELLA TYPHIMURIUM, Strain/Indicator: TA98, Metabolic Activation: NONE, Method: PREINCUBATION) was “inactive; negative”, the mutagenic call (Test System: AMES SALMONELLA TYPHIMURIUM, Strain/Indicator: TA98, Metabolic Activation: NONE, Method: STANDARD PLATE) was “inactive; negative” and the mutagenic call (Test System: AMES SALMONELLA TYPHIMURIUM, Strain/Indicator: TA98, Metabolic Activation: RAT LIVER S-9, AROCLOR 1254 (30%), Method: PREINCUBATION) was “inactive; negative”. For the same compound, the mutagenic call (Test System: AMES SALMONELLA TYPHIMURIUM, Strain/Indicator: TA98, Metabolic Activation: RAT, LIVER, S-9, AROCLOR 1254 (30%), Method: PREINCUBATION) was “inactive; negative”, the mutagenic call (Test System: AMES SALMONELLA TYPHIMURIUM, Strain/Indicator: TA98, Metabolic Activation: RAT, LIVER, S-9, AROCLOR 1254, Method: STANDARD PLATE) was “inactive; negative” and the mutagenic call (Test System: AMES SALMONELLA TYPHIMURIUM, Strain/Indicator: TA98, Metabolic Activation: RAT, LIVER, S-9, Method: STANDARD PLATE) was “inactive; negative”. The mutagenic call (Test System: AMES SALMONELLA TYPHIMURIUM, Strain/Indicator: TA100, Metabolic Activation: HAMSTER LIVER S-9, AROCLOR 1254 (30%), Method: PREINCUBATION) was “active; positive”, the mutagenic call (Test System: AMES SALMONELLA TYPHIMURIUM, Strain/Indicator: TA100, Metabolic Activation: HAMSTER, LIVER, S-9, AROCLOR 1254 (30%), Method: PREINCUBATION) was “active; positive” and the mutagenic call (Test System: AMES SALMONELLA TYPHIMURIUM, Strain/Indicator: TA100, Metabolic Activation: NONE, Method: PREINCUBATION) was “active; positive”. For the same compound, the mutagenic call (Test System: AMES SALMONELLA TYPHIMURIUM, Strain/Indicator: TA100, Metabolic Activation: NONE, Method: STANDARD PLATE) was “active; positive”, the mutagenic call (Test System: AMES SALMONELLA TYPHIMURIUM, Strain/Indicator: TA100, Metabolic Activation: RAT LIVER S-9, AROCLOR 1254 (30%), Method: PREINCUBATION) was “active; positive” and the mutagenic call (Test System: AMES SALMONELLA TYPHIMURIUM, Strain/Indicator: TA100, Metabolic Activation: RAT, LIVER, S-9, AROCLOR 1254 (30%), Method: PREINCUBATION) was “active; positive”. For the same compound, the mutagenic call (Test System: AMES SALMONELLA TYPHIMURIUM, Strain/Indicator: TA100, Metabolic Activation: RAT, LIVER, S-9, AROCLOR 1254, Method: PREINCUBATION) was “active; positive”, the mutagenic call (Test System: AMES SALMONELLA TYPHIMURIUM, Strain/Indicator: TA100, Metabolic Activation: RAT, LIVER, S-9, AROCLOR 1254, Method: STANDARD PLATE) was “active; positive” and the mutagenic call (Test System: AMES SALMONELLA TYPHIMURIUM, Strain/Indicator: TA100, Metabolic Activation: RAT, LIVER, S-9, Method: STANDARD PLATE) was “active; positive”. For the same compound, the mutagenic call (Test System: AMES SALMONELLA TYPHIMURIUM, Strain/Indicator: TA102, Metabolic Activation: NONE, Method: PREINCUBATION) was “inactive; negative”, the mutagenic call (Test System: AMES SALMONELLA TYPHIMURIUM, Strain/Indicator: TA102, Metabolic Activation: NONE, Method: STANDARD PLATE) was “inactive; negative” and the mutagenic call (Test System: AMES SALMONELLA TYPHIMURIUM, Strain/Indicator: TA102, Metabolic Activation: RAT, LIVER, S-9, AROCLOR 1254, Method: PREINCUBATION) was “inactive; negative”. The mutagenic call (Test System: AMES SALMONELLA TYPHIMURIUM, Strain/Indicator: TA102, Metabolic Activation: RAT, LIVER, S-9, AROCLOR 1254, Method: STANDARD PLATE) was “inactive; negative”, the mutagenic call (Test System: AMES SALMONELLA TYPHIMURIUM, Strain/Indicator: TA104, Metabolic Activation: RAT, LIVER, S-9, AROCLOR 1254, Method: PREINCUBATION) was “active; positive” and the mutagenic call (Test System: AMES SALMONELLA TYPHIMURIUM, Strain/Indicator: TA1530, Metabolic Activation: NONE, Method: PREINCUBATION) was “active; positive”. For the same compound, the mutagenic call (Test System: AMES SALMONELLA TYPHIMURIUM, Strain/Indicator: TA1530, Metabolic Activation: NONE, Method: STANDARD PLATE) was “active; positive”, the mutagenic call (Test System: AMES SALMONELLA TYPHIMURIUM, Strain/Indicator: TA1530, Metabolic Activation: RAT, LIVER, S-9, AROCLOR 1254, Method: PREINCUBATION) was “active; positive” and the mutagenic call (Test System: AMES SALMONELLA TYPHIMURIUM, Strain/Indicator: TA1530, Metabolic Activation: RAT, LIVER, S-9, AROCLOR 1254, Method: STANDARD PLATE) was “active; positive”. The mutagenic call (Test System: AMES SALMONELLA TYPHIMURIUM, Strain/Indicator: TA1535, Metabolic Activation: NONE, Method: PREINCUBATION) was “active; positive”, the mutagenic call (Test System: AMES SALMONELLA TYPHIMURIUM, Strain/Indicator: TA1535, Metabolic Activation: NONE, Method: STANDARD PLATE) was “active; positive” and the mutagenic call (Test System: AMES SALMONELLA TYPHIMURIUM, Strain/Indicator: TA1535, Metabolic Activation: RAT, LIVER, S-9, AROCLOR 1254, Method: PREINCUBATION) was “active; positive”. For the same compound, the mutagenic call (Test System: AMES SALMONELLA TYPHIMURIUM, Strain/Indicator: TA1535, Metabolic Activation: RAT, LIVER, S-9, AROCLOR 1254, Method: STANDARD PLATE) was “active; positive”, the mutagenic call (Test System: AMES SALMONELLA TYPHIMURIUM, Strain/Indicator: TA1535, Metabolic Activation: RAT, LIVER, S-9, Method: STANDARD PLATE) was “active; positive” and the mutagenic call (Test System: AMES SALMONELLA TYPHIMURIUM, Strain/Indicator: TA1537, Metabolic Activation: NONE, Method: STANDARD PLATE) was “inactive; negative”. For the same compound, the mutagenic call (Test System: AMES SALMONELLA TYPHIMURIUM, Strain/Indicator: TA1537, Metabolic Activation: RAT, LIVER, S-9, AROCLOR 1254, Method: STANDARD PLATE) was “inactive; negative”, the mutagenic call (Test System: AMES SALMONELLA TYPHIMURIUM, Strain/Indicator: TA1538, Metabolic Activation: NONE, Method: STANDARD PLATE) was “inactive; negative” and the mutagenic call (Test System: AMES SALMONELLA TYPHIMURIUM, Strain/Indicator: TA1538, Metabolic Activation: RAT, LIVER, S-9, AROCLOR 1254, Method: STANDARD PLATE) was “inactive; negative”. The mutagenic call (Test System: AMES SALMONELLA TYPHIMURIUM, Strain/Indicator: TA1538, Metabolic Activation: RAT, LIVER, S-9, Method: STANDARD PLATE) was “inactive; negative”, the mutagenic call (Test System: AMES SALMONELLA TYPHIMURIUM, Strain/Indicator: YG1024, Metabolic Activation: NONE, Method: PREINCUBATION) was “inactive; negative” and the mutagenic call (Test System: AMES SALMONELLA TYPHIMURIUM, Strain/Indicator: YG1024, Metabolic Activation: NONE, Method: STANDARD PLATE) was “inactive; negative”. The mutagenic call (Test System: AMES SALMONELLA TYPHIMURIUM, Strain/Indicator: YG1024, Metabolic Activation: RAT, LIVER, S-9, AROCLOR 1254, Method: PREINCUBATION) was “inactive; negative”, the mutagenic call (Test System: AMES SALMONELLA TYPHIMURIUM, Strain/Indicator: YG1024, Metabolic Activation: RAT, LIVER, S-9, AROCLOR 1254, Method: STANDARD PLATE) was “inactive; negative” and the mutagenic call (Test System: CHINESE HAMSTER V-79, Strain/Indicator: V-79/6-THIOGUANINE, Metabolic Activation: NONE) was “active; positive”. The mutagenic call (Test System: E. COLI, Strain/Indicator: WP2, Metabolic Activation: NONE, Method: STANDARD PLATE) was “inactive; negative”, the mutagenic call (Test System: E. COLI, Strain/Indicator: WP2, Metabolic Activation: RAT, LIVER, S-9, AROCLOR 1254, Method: STANDARD PLATE) was “inactive; negative” and the mutagenic call (Test System: E.COLI, Strain/Indicator: WP2UVRA/PKM101, Metabolic Activation: NONE, Method: PREINCUBATION) was “inactive; negative”. The mutagenic call (Test System: E.COLI, Strain/Indicator: WP2UVRA/PKM101, Metabolic Activation: RAT LIVER S-9, PHENOBARBITAL AND 5,6-BENZOFLAVONE, Method: PREINCUBATION) was “inactive; negative” and the mutagenic call (Test System: MOUSE LYMPHOMA, Strain/Indicator: L5178Y (TK+/TK-), Metabolic Activation: NONE, Method: SUSPENSION/PLATE) was “active; positive”.
